For one molecule, Kd results are on record in ChEMBL document CHEMBL1151597, “THE ROLE OF ARGININE IN THE BINDING OF LTD4 ANTAGONISTS TO cysLT1 RECEPTORS OF GUINEA PIG LUNG” (Bioorg Med Chem Lett, 1997).

This test has as its target T1, Cysteinyl leukotriene receptor 1 (Cavia porcellus, UniProt Q2NNR5).
T1 sequence (Q2NNR5 whole entry): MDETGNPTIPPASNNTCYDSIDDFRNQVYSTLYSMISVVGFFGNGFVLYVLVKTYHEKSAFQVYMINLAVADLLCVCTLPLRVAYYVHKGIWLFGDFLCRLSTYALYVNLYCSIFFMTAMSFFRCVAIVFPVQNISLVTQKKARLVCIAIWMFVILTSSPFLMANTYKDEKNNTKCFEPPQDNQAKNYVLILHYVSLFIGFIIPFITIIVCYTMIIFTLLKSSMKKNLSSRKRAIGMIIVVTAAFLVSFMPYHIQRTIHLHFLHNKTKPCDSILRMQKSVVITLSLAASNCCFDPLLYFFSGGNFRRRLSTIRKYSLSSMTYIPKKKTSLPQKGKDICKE
Nature of the test: Dissociation constant for CysLT1 receptor was determined by the displacement of [3H]LTD4 from guinea pig lung membranes. In kind it is tissue-based, Membrane. On the technique in general: Displacement assays read how much labelled ligand stays bound in the presence of the test substance.

With `COc1cc(C(=O)NS(=O)(=O)c2ccccc2)ccc1Cn1ncc2ccc(NC(=O)OC3CCCC3)cc21` [ICI-198615], the Kd was 0.0000301 M l-1.
